Test results published in PubChem BioAssay (NCI).
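Compound exposure: 48 hours, 5 concentrations, 96-well plates. The concentration for 50% growth inhibition is given as GI50. TGI: total growth inhibition.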

Assays:
Experiment in all cases: inhibition of tumour cell growth, NCI panel, 48 h
[1] = tested on: A498 renal
[2] = tested on: EKVX NSCLC
[3] = tested on: HCT-15 colon
[4] = tested on: IGROV1 ovarian
[5] = tested on: M14 melanoma
[6] = tested on: NCI-H460 lung
[7] = tested on: OVCAR-5 ovarian
[8] = tested on: SK-MEL-2 melanoma
[9] = tested on: SR leukemia
[10] = tested on: UACC-257 melanoma

SMILES | GI50 [1] [µM] | TGI [1] [µM] | GI50 [2] [µM] | TGI [2] [µM] | GI50 [3] [µM] | TGI [3] [µM] | GI50 [4] [µM] | TGI [4] [µM] | GI50 [5] [µM] | TGI [5] [µM] | GI50 [6] [µM] | TGI [6] [µM] | GI50 [7] [µM] | TGI [7] [µM] | GI50 [8] [µM] | TGI [8] [µM] | GI50 [9] [µM] | TGI [9] [µM] | GI50 [10] [µM] | TGI [10] [µM]
CC[C@]1(O)C[C@H]2CN(CCc3c([nH]c4ccccc34)C(C(=O)OC)(c3cc4c(cc3OC)N(C)[C@H]3[C@@](O)(C(=O)OC)[C@H](OC(C)=O)[C@]5(CC)[C@@H]6C[C@@H]6CN6CC[C@]43[C@@H]65)C2)C1 (stereo not given in full) | 0.00275 | 0.012 | 0.00688 | > 14.3 | 0.0374 | > 14.3 | 0.00812 | 5.11 | 0.00365 | 0.254 | 0.00426 | > 4.61 | 0.00974 | > 6.67 | < 0.00143 | 0.143 | 0.00211 | 3.49 | 0.00509 | > 8.64
CC[C@@H]1NC(C(=O)OC)Cc2c1[nH]c1ccccc21 (stereo not given in full) |  | > 100 |  | > 100 |  | > 100 |  | > 100 |  | > 100 |  | > 100 |  | > 100 |  | > 100 |  | > 100 |  | > 100
Cc1ccc2c(c1)c1ccc3c(c1n2C)C(=O)C=CC3=O |  | > 8.82 |  | > 7.07 |  | 3.92 |  | > 10 |  | 4.54 |  | > 10 |  | > 10 |  | > 10 |  | 0.871 |  | 7.9
Cc1cc(C)nc(NS(=O)(=O)c2ccc(Nc3c4ccccc4nc4c(C(=O)N5CCN(CCO)CC5)cccc34)cc2)n1 |  | > 100 |  | > 100 |  | > 100 |  | > 100 |  | > 100 |  | > 100 |  | > 100 |  | > 100 |  | > 100 |  | > 100
CC12c3ccccc3C(OC=O)(c3ccccc31)C1(C)c3ccccc3C2(OC=O)c2ccccc21 |  | > 100 |  | > 100 |  | > 100 |  | > 100 |  | > 100 |  | > 100 |  | > 100 |  | > 100 |  | 48.6 |  | > 100
CCOC(=O)Cc1csc(Nc2ccccc2[N+](=O)[O-])n1 |  | > 100 |  | > 100 |  | > 100 |  | > 100 |  | > 100 |  | > 100 |  | > 100 |  | > 100 |  | 61.3 |  | > 100
